# Data: patent US20250313563A1, “GLYCOGEN SYNTHASE KINASE 3 INHIBITORS AND USES THEREOF” (The Broad Institute, Inc., priority 2022, published 2025)
# Like-named read-outs stand apart in the source and are kept apart here.
# Columns and labels:
# [1] = biological target: GSK3α (GST-full length GSK3α) (Homo sapiens (Human), UniProt P49840); assay: GSK3α TR-FRET kinase assay; assay type: biochemical
# Procedure, shortened: (§1)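 IC50s came from the normalized 665/615 TR-FRET ratio after Tb-anti-pSer641 antibody and streptavidin-d2 detection of phosphorylated biotin-glycogen synthase peptide (200 nM). ATP was 4 μM for GSK3α, 2 μM for GSK3b, or 1 mM; 1 nM enzyme, 100 min, ambient, pH 7.5, after 30-min compound preincubation.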
# [2] = biological target: GSK3b (GST-full length GSK3b) (Homo sapiens (Human), UniProt P49841); assay: GSK3b TR-FRET kinase assay; assay type: biochemical
# Chain of GSK3b (GST-full length GSK3b) (P49841 whole entry): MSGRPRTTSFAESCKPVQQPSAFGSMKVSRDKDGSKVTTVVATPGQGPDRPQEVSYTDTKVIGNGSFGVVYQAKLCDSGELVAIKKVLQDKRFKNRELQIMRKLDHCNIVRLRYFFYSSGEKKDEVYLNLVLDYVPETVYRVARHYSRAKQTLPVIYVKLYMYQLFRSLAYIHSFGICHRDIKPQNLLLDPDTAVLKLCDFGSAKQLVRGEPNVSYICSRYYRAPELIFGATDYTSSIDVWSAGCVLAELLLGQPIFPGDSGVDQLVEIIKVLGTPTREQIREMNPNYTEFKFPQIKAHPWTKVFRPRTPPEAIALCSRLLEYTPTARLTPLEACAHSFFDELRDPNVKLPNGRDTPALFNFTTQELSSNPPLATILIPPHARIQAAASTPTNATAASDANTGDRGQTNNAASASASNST
# Procedure, shortened: as §1
# [3] = 1 nM GSK3α, 4 μM ATP, 30 minute preincubation, Table 16, read-out: GSK3-A TR-FRET BIOCHEMICAL (TR-FRET), IC50
# [4] = 1 nM GSK3b, 2 μM ATP, 30 minute preincubation, Table 16, read-out: GSK3-B TR-FRET BIOCHEMICAL (TR-FRET), IC50
# [5] = 1 nM GSK3α, 4 μM ATP, 30 minute preincubation, read-out: GSK3-A TR-FRET BIOCHEMICAL (TR-FRET), IC50
# [6] = 1 nM GSK3b, 2 μM ATP, 30 minute preincubation, read-out: GSK3-B TR-FRET BIOCHEMICAL (TR-FRET), IC50
# [7] = 1 nM GSK3α, 4 μM ATP, 30 minute preincubation, Table 16, read-out: GSK3-A TR-FRET BIOCHEMICAL (TR-FRET)
# [8] = 1 nM GSK3b, 2 μM ATP, 30 minute preincubation, Table 16, read-out: GSK3-B TR-FRET BIOCHEMICAL (TR-FRET)
# [9] = read-out: GSK3-A (TR-FRET 1 mM ATP), GMean, IC50, 1 mM ATP, geometric mean
# [10] = read-out: GSK3-B (TR-FRET 1 mM ATP), GMean, IC50, 1 mM ATP, geometric mean
# [11] = 1 nM GSK3α, 4 μM ATP, 30 minute preincubation, geometric mean, read-out: GSK3-A TR-FRET BIOCHEMICAL (TR-FRET), GMean, IC50
# [12] = 1 nM GSK3b, 2 μM ATP, 30 minute preincubation, geometric mean, read-out: GSK3-B TR-FRET BIOCHEMICAL (TR-FRET), GMean, IC50
# Chain of GSK3α (GST-full length GSK3α) (P49840 whole entry): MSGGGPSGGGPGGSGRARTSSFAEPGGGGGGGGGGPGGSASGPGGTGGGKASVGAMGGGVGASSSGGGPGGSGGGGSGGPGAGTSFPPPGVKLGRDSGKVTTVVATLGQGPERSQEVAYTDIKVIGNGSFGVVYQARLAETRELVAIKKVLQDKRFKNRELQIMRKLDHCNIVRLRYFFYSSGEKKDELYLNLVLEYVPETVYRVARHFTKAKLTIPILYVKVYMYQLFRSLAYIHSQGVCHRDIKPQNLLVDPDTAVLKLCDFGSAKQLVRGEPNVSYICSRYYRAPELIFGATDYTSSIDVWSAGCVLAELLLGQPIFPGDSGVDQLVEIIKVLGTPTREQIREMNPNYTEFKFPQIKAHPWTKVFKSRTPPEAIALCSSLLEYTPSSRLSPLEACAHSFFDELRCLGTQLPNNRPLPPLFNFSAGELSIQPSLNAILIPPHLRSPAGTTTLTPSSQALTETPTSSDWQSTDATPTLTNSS
structure (smiles),measurement,setting,value
CC[C@]1(C)C2=C(CC(C)(C)CC2=O)Nc2n[nH]cc21 [Compound 884020],IC50,[1]; [3],> 5000 nM
same,IC50,[2]; [4],> 5000 nM
CC1(C)CC(=O)C2=C(C1)Nc1n[nH]cc1C21COC2(CN(S(=O)(=O)c3ccccc3)C2)C1 (stereo not shown) [Compound 913002],IC50,[1]; [5],100 to 1000 nM
same,IC50,[2]; [6],1000 to 5000 nM
CC(=O)N1C[C@]2(C[C@]3(CO2)C2=C(CC(C)(C)CC2=O)Nc2n[nH]cc23)[C@H]1C [Compound 948437],IC50,[1]; [5],≤ 100 nM
same,IC50,"[1]; GSK3-A (TR-FRET 1 mM ATP), GMean, IC50, 1 mM ATP, geometric mean",≤ 100 nM
same,IC50,[2]; [6],≤ 100 nM
same,IC50,"[2]; GSK3-B (TR-FRET 1 mM ATP), GMean, IC50, 1 mM ATP, geometric mean",≤ 100 nM
CC1(C)CC(=O)C2=C(C1)Nc1n[nH]cc1C21CN(CC(F)F)C1 [Compound 912073],IC50,[1]; [7],100 to 1000 nM
same,IC50,[2]; [8],100 to 1000 nM
CC[C@]1(c2cccc(-c3ccncc3C)c2)C2=C(CC(C)(C)CC2=O)Nc2n[nH]cc21 [Compound 913047],IC50,[1]; [3],≤ 100 nM
same,IC50,[1]; [9],≤ 100 nM
same,IC50,[2]; [4],≤ 100 nM
same,IC50,[2]; [10],100 to 1000 nM
Cc1nccc([C@H]2CC[C@]3(CC2)C2=C(CC(C)(C)CC2=O)Nc2n[nH]cc23)c1C [Compound 950477],IC50,[1]; [7],100 to 1000 nM
same,IC50,[2]; [8],100 to 1000 nM
Cn1ccc(S(=O)(=O)N2CCC[C@]3(CC2)C2=C(CC(C)(C)CC2=O)Nc2n[nH]cc23)n1 [Compound 932660],IC50,[1]; [7],≤ 100 nM
same,IC50,[2]; [8],100 to 1000 nM
CCC1(c2cccc(N(C)c3cccnc3)c2)C2=C(CC(C)(C)CC2=O)Nc2n[nH]cc21 (stereo not shown) [Compound 874298],IC50,[1]; [11],≤ 100 nM
same,IC50,[2]; [12],≤ 100 nM
CCC1(c2cccc(C(F)(F)F)c2)C2=C(CCN(C(C)C)C2=O)Nc2n[nH]cc21 (stereo not shown) [Compound 825755],IC50,[1]; [5],≤ 100 nM
same,IC50,[2]; [6],100 to 1000 nM
CCC1(c2cccc(-c3ccncc3C)c2)C2=C(CC(C)(C)CC2=O)Nc2n[nH]cc21 (stereo not shown) [Compound 913351],IC50,[1]; [3],≤ 100 nM
same,IC50,[2]; [4],≤ 100 nM
Cc1cc([C@H]2CC[C@]3(CC2)C2=C(CC(C)(C)CC2=O)Nc2n[nH]cc23)ccn1 [Compound 948416],IC50,[1]; [7],≤ 100 nM
same,IC50,[2]; [8],100 to 1000 nM
CC[C@]1(c2cccc(-c3ccnc(C)c3)c2)C2=C(C[C@]3(CCOC3)NC2=O)Nc2n[nH]cc21 [Compound 948149],IC50,[1]; [11],≤ 100 nM
same,IC50,[2]; [12],100 to 1000 nM
CC1(C)CC(=O)C2=C(C1)Nc1n[nH]cc1C21COC2(CN(C(=O)c3ccc(F)cc3)C2)C1 (stereo not shown) [Compound 947292],IC50,[1]; [5],≤ 100 nM
same,IC50,[2]; [6],≤ 100 nM
C[C@H]1CCC[C@]2(C1)C1=C(CC(C)(C)CC1=O)Nc1n[nH]cc12 [Compound 893318],IC50,[1]; [7],100 to 1000 nM
same,IC50,[2]; [8],100 to 1000 nM
CC[C@]1(c2cccc(C(F)(F)F)c2)C2=C(CCN(c3ccn(C)n3)C2=O)Nc2n[nH]cc21 [Compound 949836],IC50,[1]; [3],1000 to 5000 nM
same,IC50,[2]; [4],> 5000 nM
CC[C@@]1(c2cccc(-c3ccnn3-c3ccc(F)cc3)c2)C2=C(CC(C)(C)NC2=O)Nc2n[nH]cc21 [Compound 949396],IC50,[1]; [3],> 5000 nM
same,IC50,[2]; [4],> 5000 nM
CC[C@]1(c2cccc(C(F)(F)F)c2)C2=C(CCN(c3cn(C)c(C)n3)C2=O)Nc2n[nH]cc21 [Compound 952479],IC50,[1]; [3],> 5000 nM
same,IC50,[2]; [4],> 5000 nM
CC[C@]1(c2cccc(-c3ccnc4nc(C)ccc34)c2)C2=C(CC(C)(C)NC2=O)Nc2n[nH]cc21 [Compound 948143],IC50,[1]; [11],≤ 100 nM
same,IC50,[2]; [12],100 to 1000 nM
CC[C@@]1(c2cccc(-c3ccncc3O)c2)C2=C(CC(C)(C)CC2=O)Nc2n[nH]cc21 [Compound 945728],IC50,[1]; [7],1000 to 5000 nM
same,IC50,[2]; [8],> 5000 nM
CC[C@@]1(c2cccc(C(C)C)c2)C2=C(CC(C)(C)NC2=O)Nc2n[nH]c(C)c21 [Compound 949646],IC50,[1]; [3],> 5000 nM
same,IC50,[2]; [4],> 5000 nM
COc1ccc(S(=O)(=O)N2CCC3(CC2)C2=C(CC(C)(C)CC2=O)Nc2n[nH]cc23)cc1C [Compound 945680],IC50,[1]; [7],≤ 100 nM
same,IC50,[2]; [8],≤ 100 nM
CC[C@]1(c2cccc(-c3ccncc3F)c2)C2=C(CC(C)(C)NC2=O)Nc2n[nH]c(C)c21 [Compound 947805],IC50,[1]; [11],100 to 1000 nM
same,IC50,[2]; [12],1000 to 5000 nM
CCC1(c2cccc(COC)c2)C2=C(CC(C)(C)CC2=O)Nc2n[nH]cc21 (stereo not shown) [Compound 810360],IC50,[1]; [11],≤ 100 nM
same,IC50,[2]; [12],100 to 1000 nM
CC1(C)CC(=O)C2=C(C1)Nc1n[nH]cc1C21CCCCC1 [Compound 826650],IC50,[1]; [7],≤ 100 nM
same,IC50,[2]; [8],≤ 100 nM
Cc1[nH]nc2c1C1(CCCCC1)C1=C(CC(C)(C)CC1=O)N2 [Compound 877288],IC50,[1]; [3],> 5000 nM
same,IC50,[2]; [4],> 5000 nM
CCC1(c2cccc(C(F)(F)F)c2)C2=C(CC3(CCCC3)CC2=O)Nc2n[nH]cc21 (stereo not shown) [Compound 790617],IC50,[1]; [11],≤ 100 nM
same,IC50,[2]; [12],≤ 100 nM
CC[C@]1(c2cccc(N(C)c3ccc(C(F)(F)F)nc3)c2)C2=C(CC(C)(C)CC2=O)Nc2n[nH]cc21 [Compound 945474],IC50,[1]; [7],≤ 100 nM
same,IC50,[2]; [8],100 to 1000 nM
CC1(C)CC(=O)C2=C(C1)Nc1n[nH]cc1C21CCN(S(=O)(=O)c2cnnn2-c2ccccc2)CC1 [Compound 947466],IC50,[1]; [7],≤ 100 nM
same,IC50,[2]; [8],100 to 1000 nM
CC1(C)CC(=O)C2=C(C1)Nc1n[nH]cc1C21CCCN(S(=O)(=O)c2ccccc2)CC1 (stereo not shown) [Compound 889578],IC50,[1]; [7],≤ 100 nM
same,IC50,[2]; [8],≤ 100 nM
CCC1(c2cccc(-c3ccncc3F)c2)C2=C(CC(C)(C)CC2=O)Nc2n[nH]c(C)c21 (stereo not shown) [Compound 913052],IC50,[1]; [3],≤ 100 nM
same,IC50,[1]; [9],≤ 100 nM
same,IC50,[2]; [4],≤ 100 nM
same,IC50,[2]; [10],100 to 1000 nM
CC1(C)CC(=O)C2=C(C1)Nc1n[nH]cc1C21CN(S(=O)(=O)c2cccc(F)c2)C1 [Compound 918278],IC50,[1]; [7],≤ 100 nM
same,IC50,[2]; [8],≤ 100 nM
CCC1(c2cccc(-c3cc(C)nnc3C)c2)C2=C(CC(C)(C)NC2=O)Nc2n[nH]c(C)c21 (stereo not shown) [Compound 948765],IC50,[1]; [11],≤ 100 nM
same,IC50,[2]; [12],≤ 100 nM
CCC1(c2cccc(-c3cn(C)nc3C)c2)C2=C(CC(C)(C)NC2=O)Nc2n[nH]c(C)c21 (stereo not shown) [Compound 945460],IC50,[1]; [5],≤ 100 nM
same,IC50,[2]; [6],≤ 100 nM
CCC1(c2cccc(-c3cnn(C)c3)c2)C2=C(CC(C)(C)NC2=O)Nc2n[nH]c(Cl)c21 (stereo not shown) [Compound 948767],IC50,[1]; [11],≤ 100 nM
same,IC50,[2]; [12],≤ 100 nM
CCC1(c2cccc(-c3cnn4c3CCCC4)c2)C2=C(CC(C)(C)CC2=O)Nc2n[nH]c(C)c21 (stereo not shown) [Compound 913036],IC50,[1]; [3],≤ 100 nM
same,IC50,[1]; [9],≤ 100 nM
same,IC50,[2]; [4],≤ 100 nM
same,IC50,[2]; [10],100 to 1000 nM
CCC1(c2cccc(-c3ccncc3C)c2)C2=C(CC(C)(C)NC2=O)Nc2n[nH]cc21 (stereo not shown) [Compound 947576],IC50,[1]; [11],≤ 100 nM
same,IC50,[2]; [12],1000 to 5000 nM
CC[C@@]1(c2ccccc2)C2=C(C[C@@]3(CCCOC3)CC2=O)Nc2n[nH]cc21 [Compound 816878],IC50,[1]; [11],100 to 1000 nM
same,IC50,[2]; [12],1000 to 5000 nM
CCC1(c2cccc(-c3cnn(C)c3)c2)C2=C(CC(C)(C)CC2=O)Nc2n[nH]c(C)c21 (stereo not shown) [Compound 913038],IC50,[1]; [3],100 to 1000 nM
same,IC50,[2]; [4],1000 to 5000 nM
CO[C@H]1CC[C@@]2(CC1)C1=C(CC(C)(C)CC1=O)Nc1n[nH]cc12 [Compound 884120],IC50,[1]; [7],100 to 1000 nM
same,IC50,[2]; [8],100 to 1000 nM
CC[C@]1(c2cccc(Cc3ncccn3)c2)C2=C(CC(C)(C)CC2=O)Nc2n[nH]cc21 [Compound 947499],IC50,[1]; [7],1000 to 5000 nM
same,IC50,[1]; [9],> 5000 nM
same,IC50,[2]; [8],> 5000 nM
same,IC50,[2]; [10],> 5000 nM
C[C@@H]1C[C@]2(CCN1S(C)(=O)=O)C1=C(CC(C)(C)CC1=O)Nc1n[nH]cc12 [Compound 918315],IC50,[1]; [7],100 to 1000 nM
same,IC50,[2]; [8],100 to 1000 nM
CCC1(c2cccc(-c3ccncc3C)c2)C2=C(CC(C)(COC)NC2=O)Nc2n[nH]cc21 (mixture of isomers) [Compound 948127],IC50,[1]; [11],100 to 1000 nM
same,IC50,[2]; [12],> 5000 nM
